Experimental data: PubChem BioAssay AID256 (DTP/NCI, 2004)
Where “and” joins values, the source holds several entries; their conditions need not be identical. Identical values can stand only once. Inconclusive results and toxic doses are left out.

System: CD2F1 mice, L1210 leukemia ip, survival T/C
Assay: NCI In Vivo Anticancer Drug Screen. Data for tumor model L1210 Leukemia (intraperitoneal) in CD2F1 (CDF1) mice
Details: higher = longer survival
Procedure, shortened: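 Activity against a transplanted murine tumor was judged by comparing the compound group with a vehicle group. The outcome in the treated animals was divided by that in the controls.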

[1] = endpoint: mean survival time, dose: 100.0 mg/kg/injection, schedule: Q01DX009 (ip), vehicle: saline with Tween-80
[2] = endpoint: mean survival time, dose: 200.0 mg/kg/injection, schedule: Q01DX009 (ip), vehicle: saline with Tween-80
[3] = endpoint: mean survival time, dose: 400.0 mg/kg/injection, schedule: Q01DX009 (ip), vehicle: saline with Tween-80

O=C1c2c(O)ccc(O)c2C(=O)c2c(NCCNCCO)ccc(NCCNCCO)c21
T/C (endpoint: mean survival time, dose: 0.13 mg/kg/injection, schedule: Q01DX005 (iv), vehicle: acid diluted with saline): 104 % of control
T/C (endpoint: mean survival time, dose: 0.13 mg/kg/injection, schedule: Q01DX005 (iv), vehicle: clinical formulation): 109 % of control
T/C (endpoint: mean survival time, dose: 0.13 mg/kg/injection, schedule: Q01DX009 (ip), vehicle: clinical formulation): 276 % of control and 165 % of control
T/C (endpoint: mean survival time, dose: 0.19 mg/kg/injection, schedule: Q01DX009 (ip), vehicle: saline): 161 % of control and 195 % of control
T/C (endpoint: mean survival time, dose: 0.25 mg/kg/injection, schedule: Q01DX005 (iv), vehicle: acid diluted with saline): 110 % of control
T/C (endpoint: mean survival time, dose: 0.25 mg/kg/injection, schedule: Q01DX005 (iv), vehicle: saline): 117 % of control
T/C (endpoint: mean survival time, dose: 0.25 mg/kg/injection, schedule: Q01DX009 (ip), vehicle: acid diluted with saline): 170 % of control and 196 % of control
T/C (endpoint: mean survival time, dose: 0.25 mg/kg/injection, schedule: Q01DX009 (ip), vehicle: clinical formulation): 404 % of control and 223 % of control
T/C (endpoint: mean survival time, dose: 0.38 mg/kg/injection, schedule: Q01DX009 (ip), vehicle: saline): 182 % of control and 193 % of control
T/C (endpoint: mean survival time, dose: 0.5 mg/kg/injection, schedule: Q01DX005 (iv), vehicle: acid diluted with saline): 153 % of control
T/C (endpoint: mean survival time, dose: 0.5 mg/kg/injection, schedule: Q01DX005 (iv), vehicle: clinical formulation): 163 % of control and 159 % of control
T/C (endpoint: mean survival time, dose: 0.5 mg/kg/injection, schedule: Q01DX005 (iv), vehicle: saline): 152 % of control
T/C (endpoint: mean survival time, dose: 0.5 mg/kg/injection, schedule: Q01DX005 (oral), vehicle: acid diluted with saline): 102 % of control and 107 % of control
T/C (endpoint: mean survival time, dose: 0.5 mg/kg/injection, schedule: Q01DX009 (ip), vehicle: acid diluted with saline): 150 % of control and 171 % of control and 328 % of control
T/C (endpoint: mean survival time, dose: 0.5 mg/kg/injection, schedule: Q01DX009 (ip), vehicle: clinical formulation): 228 % of control
T/C (endpoint: mean survival time, dose: 1.0 mg/kg/injection, schedule: Q01DX005 (ip), vehicle: acid diluted with saline): 163 % of control
T/C (endpoint: mean survival time, dose: 1.0 mg/kg/injection, schedule: Q01DX005 (iv), vehicle: acid diluted with saline): 157 % of control and 170 % of control
T/C (endpoint: mean survival time, dose: 1.0 mg/kg/injection, schedule: Q01DX005 (iv), vehicle: clinical formulation): 324 % of control
T/C (endpoint: mean survival time, dose: 1.0 mg/kg/injection, schedule: Q01DX005 (iv), vehicle: saline): 180 % of control
T/C (endpoint: mean survival time, dose: 1.0 mg/kg/injection, schedule: Q01DX005 (oral), vehicle: acid diluted with saline): 101 % of control
T/C (endpoint: mean survival time, dose: 1.0 mg/kg/injection, schedule: Q01DX009 (ip), vehicle: acid diluted with saline): 168 % of control and 274 % of control and 307 % of control
T/C (endpoint: mean survival time, dose: 1.0 mg/kg/injection, schedule: Q01DX009 (ip), vehicle: clinical formulation): 494 % of control
T/C (endpoint: mean survival time, dose: 1.0 mg/kg/injection, schedule: Q04DX003 (iv), vehicle: acid diluted with saline): 151 % of control
T/C (endpoint: mean survival time, dose: 2.0 mg/kg/injection, schedule: Q01DX005 (ip), vehicle: acid diluted with saline): 198 % of control
T/C (endpoint: mean survival time, dose: 2.0 mg/kg/injection, schedule: Q01DX005 (iv), vehicle: acid diluted with saline): 168 % of control and 409 % of control
T/C (endpoint: mean survival time, dose: 2.0 mg/kg/injection, schedule: Q01DX005 (iv), vehicle: clinical formulation): 171 % of control
T/C (endpoint: mean survival time, dose: 2.0 mg/kg/injection, schedule: Q01DX005 (iv), vehicle: saline): 173 % of control
T/C (endpoint: mean survival time, dose: 2.0 mg/kg/injection, schedule: Q01DX005 (oral), vehicle: acid diluted with saline): 102 % of control and 109 % of control
T/C (endpoint: mean survival time, dose: 2.0 mg/kg/injection, schedule: Q01DX009 (ip), vehicle: acid diluted with saline): 246 % of control and 354 % of control
T/C (endpoint: mean survival time, dose: 2.0 mg/kg/injection, schedule: Q01DX009 (ip), vehicle: clinical formulation): 190 % of control
T/C (endpoint: mean survival time, dose: 2.0 mg/kg/injection, schedule: Q04DX003 (ip), vehicle: acid diluted with saline): 167 % of control and 223 % of control
T/C (endpoint: mean survival time, dose: 2.0 mg/kg/injection, schedule: Q04DX003 (iv), vehicle: acid diluted with saline): 189 % of control
T/C (endpoint: mean survival time, dose: 3.89 mg/kg/injection, schedule: Q01DX001 (ip), vehicle: acid diluted with saline): 190 % of control and 221 % of control
T/C (endpoint: mean survival time, dose: 3.89 mg/kg/injection, schedule: Q01DX001 (iv), vehicle: acid diluted with saline): 163 % of control and 173 % of control
T/C (endpoint: mean survival time, dose: 4.0 mg/kg/injection, schedule: Q01DX005 (ip), vehicle: acid diluted with saline): 256 % of control
T/C (endpoint: mean survival time, dose: 4.0 mg/kg/injection, schedule: Q01DX005 (iv), vehicle: acid diluted with saline): 90 % of control
T/C (endpoint: mean survival time, dose: 4.0 mg/kg/injection, schedule: Q01DX005 (oral), vehicle: acid diluted with saline): 102 % of control and 107 % of control
T/C (endpoint: mean survival time, dose: 4.0 mg/kg/injection, schedule: Q01DX009 (ip), vehicle: acid diluted with saline): 118 % of control and 101 % of control and 102 % of control
T/C (endpoint: mean survival time, dose: 4.0 mg/kg/injection, schedule: Q04DX003 (ip), vehicle: acid diluted with saline): 211 % of control and 230 % of control
T/C (endpoint: mean survival time, dose: 4.0 mg/kg/injection, schedule: Q04DX003 (iv), vehicle: acid diluted with saline): 260 % of control
T/C (endpoint: mean survival time, dose: 6.48 mg/kg/injection, schedule: Q01DX001 (ip), vehicle: acid diluted with saline): 248 % of control and 328 % of control
T/C (endpoint: mean survival time, dose: 6.48 mg/kg/injection, schedule: Q01DX001 (iv), vehicle: acid diluted with saline): 180 % of control and 181 % of control
T/C (endpoint: mean survival time, dose: 8.0 mg/kg/injection, schedule: Q01DX005 (ip), vehicle: acid diluted with saline): 98 % of control
T/C (endpoint: mean survival time, dose: 8.0 mg/kg/injection, schedule: Q01DX005 (oral), vehicle: acid diluted with saline): 100 % of control and 107 % of control
T/C (endpoint: mean survival time, dose: 8.0 mg/kg/injection, schedule: Q04DX003 (ip), vehicle: acid diluted with saline): 320 % of control
T/C (endpoint: mean survival time, dose: 8.0 mg/kg/injection, schedule: Q04DX003 (iv), vehicle: acid diluted with saline): 163 % of control
T/C (endpoint: mean survival time, dose: 10.8 mg/kg/injection, schedule: Q01DX001 (ip), vehicle: acid diluted with saline): 207 % of control and 309 % of control
T/C (endpoint: mean survival time, dose: 10.8 mg/kg/injection, schedule: Q01DX001 (iv), vehicle: acid diluted with saline): 233 % of control and 261 % of control
T/C (endpoint: mean survival time, dose: 16.0 mg/kg/injection, schedule: Q01DX005 (oral), vehicle: acid diluted with saline): 93 % of control and 109 % of control
T/C (endpoint: mean survival time, dose: 16.0 mg/kg/injection, schedule: Q04DX003 (iv), vehicle: acid diluted with saline): 110 % of control
T/C (endpoint: mean survival time, dose: 18.0 mg/kg/injection, schedule: Q01DX001 (ip), vehicle: acid diluted with saline): 191 % of control and 344 % of control
T/C (endpoint: mean survival time, dose: 18.0 mg/kg/injection, schedule: Q01DX001 (iv), vehicle: acid diluted with saline): 308 % of control and 344 % of control
T/C (endpoint: mean survival time, dose: 30.0 mg/kg/injection, schedule: Q01DX001 (ip), vehicle: acid diluted with saline): 289 % of control
T/C (endpoint: mean survival time, dose: 30.0 mg/kg/injection, schedule: Q01DX001 (iv), vehicle: acid diluted with saline): 156 % of control
T/C (endpoint: median survival time, dose: 0.25 mg/kg/injection, schedule: Q01DX009 (ip), vehicle: acid diluted with saline): 172 % of control
T/C (endpoint: median survival time, dose: 0.5 mg/kg/injection, schedule: Q01DX009 (ip), vehicle: acid diluted with saline): 170 % of control and 197 % of control
T/C (endpoint: median survival time, dose: 1.0 mg/kg/injection, schedule: Q01DX009 (ip), vehicle: acid diluted with saline): 179 % of control and 182 % of control
T/C (endpoint: median survival time, dose: 1.08 mg/kg/injection, schedule: Q04DX003 (ip), vehicle: saline): 151 % of control
T/C (endpoint: median survival time, dose: 1.8 mg/kg/injection, schedule: Q04DX003 (ip), vehicle: saline): 175 % of control
T/C (endpoint: median survival time, dose: 2.0 mg/kg/injection, schedule: Q01DX009 (ip), vehicle: acid diluted with saline): 219 % of control and 370 % of control
T/C (endpoint: median survival time, dose: 2.16 mg/kg/injection, schedule: Q01DX001 (iv), vehicle: saline): 170 % of control
T/C (endpoint: median survival time, dose: 3.6 mg/kg/injection, schedule: Q01DX001 (iv), vehicle: saline): 170 % of control
T/C (endpoint: median survival time, dose: 5.0 mg/kg/injection, schedule: Q04DX003 (ip), vehicle: saline): 208 % of control
T/C (endpoint: median survival time, dose: 6.0 mg/kg/injection, schedule: Q01DX001 (iv), vehicle: saline): 196 % of control

CC(CC(=O)Nc1ccc(S(=O)(=O)F)cc1)c1ccc(N2C(N)=NC(N)=NC2(C)C)cc1 (stereo not given)
T/C (endpoint: mean survival time, dose: 12.5 mg/kg/injection, schedule: Q01DX009 (ip), vehicle: saline): 109 % of control
T/C (endpoint: mean survival time, dose: 25.0 mg/kg/injection, schedule: Q01DX009 (ip), vehicle: saline): 109 % of control
T/C (endpoint: mean survival time, dose: 50.0 mg/kg/injection, schedule: Q01DX009 (ip), vehicle: saline): 113 % of control
T/C (endpoint: mean survival time, dose: 100.0 mg/kg/injection, schedule: Q01DX009 (ip), vehicle: saline): 113 % of control
T/C (endpoint: mean survival time, dose: 100.0 mg/kg/injection, schedule: Q#A X018 (ip), vehicle: saline): 116 % of control
T/C (endpoint: mean survival time, dose: 150.0 mg/kg/injection, schedule: Q#A X018 (ip), vehicle: saline): 119 % of control
T/C (endpoint: mean survival time, dose: 200.0 mg/kg/injection, schedule: Q01DX009 (ip), vehicle: saline): 113 % of control and 121 % of control
T/C (endpoint: mean survival time, dose: 300.0 mg/kg/injection, schedule: Q01DX009 (ip), vehicle: saline): 118 % of control
T/C (endpoint: mean survival time, dose: 400.0 mg/kg/injection, schedule: Q01DX009 (ip), vehicle: saline): 124 % of control

O=C(O)C1C2CCCCC21 (stereo not given)
T/C [1]: 105 % of control
T/C (endpoint: mean survival time, dose: 100.0 mg/kg/injection, schedule: Q04DX003 (ip), vehicle: saline with Tween-80): 98 % of control
T/C [2]: 94 % of control
T/C (endpoint: mean survival time, dose: 200.0 mg/kg/injection, schedule: Q04DX003 (ip), vehicle: saline with Tween-80): 100 % of control
T/C [3]: 101 % of control
T/C (endpoint: mean survival time, dose: 400.0 mg/kg/injection, schedule: Q04DX003 (ip), vehicle: saline with Tween-80): 94 % of control

C=C1C(=O)O[C@@H]2[C@H]1[C@@H](OC(C)=O)C[C@H](C)[C@@H]1CCC(=O)[C@@]21C
T/C [1]: 93 % of control
T/C [2]: 89 % of control
T/C [3]: 92 % of control

CC(=O)N/C(=C\c1ccccc1)C(N)=O
T/C [1]: 103 % of control
T/C [2]: 95 % of control
T/C [3]: 100 % of control
